# In PubChem BioAssay AID2840 (Southern Research Specialized Biocontainment Screening …, 2010):
# pIC50: −log10 of the molar value. Active and inactive are the calls of the source. No rule for the calls is given here.
# System: Salmonella typhi GFP reporter counter-screen, fluorescence, 4 h
# Experiment: Salmonella typhi GFP reporter counter screen, fluorescence, PhoP regulon inhibitors, confirmatory, 4 h (AID 2840)
# Conditions: not given
row,Structure (SMILES),pIC50
1,COc1c(N2CCN(C(=S)NCc3ccccc3)C(C)C2)c(F)cc2c(=O)c(C(=O)O)cn(C3CC3)c12 (stereo unspecified),> 6.82
2,O=C(Nc1nnc(-c2cccs2)o1)c1cccc(C(F)(F)F)c1,> 6.82
3,COc1ccc(NC(=O)c2cc(Br)c(Br)s2)cn1,> 6.82
4,O=C1C2=C(Nc3ccccc3SC2c2ccc(C(F)(F)F)cc2)c2ccccc21 (stereo unspecified),3.97
5,CCn1cc(C(=O)O)c(=O)c2cc(F)c(N3CCN(C(=S)NC(=O)c4ccccc4Cl)CC3)cc21,> 6.82
6,O=C1C2=C(Nc3ccccc3SC2c2ccco2)c2ccccc21 (stereo unspecified),> 6.82
7,C1=C(CCNc2ncnc3c2[nH]c2ccccc23)CCCC1,> 6.82
8,S=C(NCc1ccc(Cl)cc1)Nc1ccncc1,> 6.82
9,Cc1ccc(Nc2cc(C)c3c(O)cccc3n2)cc1C,> 6.82
10,O=S(=O)(Nc1c(S(=O)(=O)c2ccccc2)c2nc3ccccc3nc2n1C1CCCCC1)c1ccccc1,> 6.82
11,CN1CCN(C2=Cc3cc(Cl)ccc3Sc3cc(F)ccc32)CC1,> 6.82
12,CCCCCNC(=O)c1cn(CC)c2cc(N3CCN(C)CC3)c(F)cc2c1=O,> 6.82
13,O=[N+]([O-])c1ccc(CNC2CCCc3ccccc32)cc1 (stereo unspecified),> 6.82
14,O=C(Nc1ccc(Cl)cc1)N1CCCN(Cc2ccccc2F)C1,> 6.82
15,CCCCn1c(NS(=O)(=O)c2ccc(C)cc2)c(S(=O)(=O)c2ccccc2)c2nc3ccccc3nc21,> 6.82
16,CCn1cc(C(=O)O)c(=O)c2cc(F)c(N3CCN(C(=S)Nc4ccccc4C(F)(F)F)CC3)cc21,3.98
17,O=c1c2ccccc2[nH]c2ccc(F)cc12,> 6.82
18,CSc1nc2cc(Oc3cccc(Cl)c3Cl)c(Cl)cc2[nH]1,> 6.82
19,Cc1ccc(CN2CCCN(C(=O)Nc3ccc(Cl)cc3)C2)cc1,4.00
20,O=C(Nc1cccnc1)c1cc(Br)c(Br)s1,> 6.82
21,N#C/C(=C\c1ccc[nH]1)C(=O)NC1CC1,> 6.82
22,CCCCn1c(NS(=O)(=O)c2ccccc2)c(S(=O)(=O)c2ccc(C)cc2)c2nc3ccccc3nc21,> 6.82
23,CN(C)CCCN(C(=O)CCc1ccccc1)c1nc2ccc(Cl)cc2s1,> 6.82
24,COc1ccccc1Nc1nc(NCc2ccco2)c2ccccc2n1,> 6.82
25,O=C(O)c1cn(-c2ccc(F)cc2)c2cc(Cl)c(F)cc2c1=O,> 6.82
26,CCn1cc(C(=O)O)c(=O)c2cc(F)c(N3CCN(C(=S)NC(=O)c4ccccc4F)CC3)cc21,> 6.82
27,O=C1c2ccccc2C2=Nc3ccccc3SC(c3ccccc3F)C12 (stereo unspecified),> 6.82
28,CN1CCc2nc(SCC(=O)Nc3cccc(F)c3)c(C#N)c(-c3cccs3)c2C1,> 6.82

# System: not listed separately
# Experiment: as above
# Conditions: Salmonella typhi GFP reporter counter-screen, fluorescence, 4 h; at 150 µM (top of the series)
row,Structure (SMILES),inhibition
1,O=C1C2=C(Nc3ccccc3SC2c2ccccc2Br)c2ccccc21 (stereo unspecified),9.22% (inactive)
2,O=C(Nc1ccccc1)N1CCCN(Cc2ccccc2F)C1,14.4% (inactive)
3,S=C(NCc1ccc(Cl)cc1)Nc1cccc(Cl)c1,21.5% (inactive)
4,Cc1cccc(NC(=S)NCc2ccc(Cl)cc2)c1,3.06% (inactive)
5,S=C(NCc1ccc(Cl)cc1)Nc1ccc(Cl)cc1,0.06% (inactive)
6,S=C(NCc1ccc(Cl)cc1)Nc1ccc(Br)cc1,1.55% (inactive)
7,CCn1cc(C(=O)O)c(=O)c2cc(F)c(N3CCN(C(=S)NCc4ccccc4)CC3)cc21,13.2% (inactive)
8,O=C1C2=C(Nc3ccccc3SC2c2ccccc2Cl)c2ccccc21 (stereo unspecified),24.5% (inactive)
9,O=C1C2=C(Nc3ccccc3SC2c2ccc(I)cc2)c2ccccc21 (stereo unspecified),37.4% (inactive)
10,COc1ccccc1NC(=O)N1CCCN(Cc2ccccc2F)C1,21% (inactive)
11,COc1ccc(NC(=S)NCc2ccc(Cl)cc2)cc1,8.1% (inactive)
12,S=C(NCc1ccccc1Cl)Nc1ccncc1,6.49% (inactive)
13,O=C1C2=C(Nc3ccccc3SC2c2cccc(Cl)c2)c2ccccc21 (stereo unspecified),14.9% (inactive)
14,Fc1ccccc1NC(=S)NCc1ccc(Cl)cc1,1.61% (inactive)
15,CCn1cc(C(=O)O)c(=O)c2cc(F)c(N3CCN(C(=S)NC)CC3)cc21,-11.9% (inactive)
16,S=C(NCc1ccc(Cl)cc1)Nc1cccnc1,-15.5% (inactive)
17,COc1cccc(C2Sc3ccccc3NC3=C2C(=O)c2ccccc23)c1 (stereo unspecified),14.1% (inactive)
18,O=C1C2=C(Nc3ccccc3SC2c2ccsc2)c2ccccc21 (stereo unspecified),13.1% (inactive)
19,COc1cccc(NC(=S)NCc2ccc(Cl)cc2)c1,2.87% (inactive)
20,CCOc1ccc(NC(=S)N2CCN(c3cc4c(cc3F)c(=O)c(C(=O)O)cn4CC)CC2)cc1,15.7% (inactive)
21,O=C1C2=C(Nc3ccccc3SC2c2ccccc2C(F)(F)F)c2ccccc21 (stereo unspecified),7.85% (inactive)
22,O=C(NCc1ccccc1)N1CCCN(Cc2ccccc2F)C1,-5% (inactive)
23,COc1ccc(CNC(=S)Nc2ccncc2)cc1,15.2% (inactive)
24,CCn1cc(C(=O)O)c(=O)c2cc(F)c(N3CCN(C(=S)Nc4ccc(Cl)cc4)CC3)cc21,39.1% (inactive)
25,O=C(Nc1ccccc1Cl)N1CCCN(Cc2ccccc2F)C1,0.77% (inactive)
26,CCn1cc(C(=O)O)c(=O)c2cc(F)c(N3CCN(C(=S)Nc4ccccc4C)CC3)cc21,22% (inactive)
27,Cc1ccc(NC(=S)NCc2ccc(Cl)cc2)cc1,1.23% (inactive)
28,CCn1cc(C(=O)O)c(=O)c2cc(F)c(N3CCN(C(=S)Nc4ccccc4Cl)CC3)cc21,17.6% (inactive)
